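Briefly, cells in 96-well plates were exposed to five compound concentrations for 48 h, and endpoints were estimated by linear interpolation. Definition used: TGI = concentration required for complete inhibition of growth.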
Assays:
Experiment in all cases: DTP human tumour cell line panel, 48 h
[1] = test system: 786-0 renal
[2] = test system: A498 renal
[3] = test system: A549 NSCLC
[4] = test system: ACHN renal
[5] = test system: BT-549 breast
[6] = test system: CAKI-1 renal
[7] = test system: CCRF-CEM leukemia
[8] = test system: COLO 205 colon
[9] = test system: DU-145 prostate
[10] = test system: EKVX NSCLC
[11] = test system: HCC-2998 colon
[12] = test system: HCT-116 colon
[13] = test system: HCT-15 colon
[14] = test system: HL-60(TB) leukemia
[15] = test system: HOP-62 NSCLC
[16] = test system: HOP-92 NSCLC
[17] = test system: HS 578T breast
[18] = test system: HT29 colon
[19] = test system: K-562 leukemia
[20] = test system: KM12 colon
[21] = test system: LOX IMVI melanoma
[22] = test system: M14 melanoma
[23] = test system: MCF7 breast
[24] = test system: MDA-MB-231 breast
[25] = test system: MDA-MB-435
[26] = test system: MDA-N
[27] = test system: MOLT-4 leukemia
[28] = test system: NCI-H226 lung
[29] = test system: NCI-H23 lung
[30] = test system: NCI-H460 lung
[31] = test system: NCI-H522 lung
[32] = test system: NCI/ADR-RES ovarian
[33] = test system: OVCAR-3 ovarian
[34] = test system: OVCAR-4 ovarian
[35] = test system: OVCAR-5 ovarian
[36] = test system: OVCAR-8 ovarian
[37] = test system: PC-3 prostate
[38] = test system: RPMI-8226 leukemia
[39] = test system: RXF 393 renal
[40] = test system: SF-268 CNS
[41] = test system: SF-295 CNS
[42] = test system: SF-539 CNS
[43] = test system: SK-MEL-2 melanoma
[44] = test system: SK-MEL-28 melanoma
[45] = test system: SK-MEL-5 melanoma
[46] = test system: SK-OV-3 ovarian
[47] = test system: SN12C renal
[48] = test system: SNB-19 CNS
[49] = test system: SNB-75 CNS
[50] = test system: SR leukemia
[51] = test system: SW-620 colon
[52] = test system: T-47D breast
[53] = test system: TK-10 renal
[54] = test system: U251 CNS
[55] = test system: UACC-257 melanoma
[56] = test system: UACC-62 melanoma
[57] = test system: UO-31 renal
[58] = test system: IGROV1 ovarian

Measured: TGI

COc1cc(/C=C/C(=O)N[C@@H]2C(=O)N3[C@@H]2SC(C)(C)[C@@H]3C(=O)O)ccc1O
not listed: [58]
> 100 µM: all other assays above

CN(C(=O)C12C3(C(=O)O)C4C5(C(=O)O)C3C1(C(=O)O)C5C42C(=O)O)C(C)(C)C (configuration not stated)
not listed: [28] | [38] | [46]
> 100 µM: all other assays above

Reference: PubChem BioAssay (NCI)
